Values quoted from earlier work in patent US12343320B2, “Intraveneous dofetilide to reduce the risk of developing AF/AFL post coronary bypass surgery” (Hyloris Developments SA, priority 2023, dated 2025).

Assays:
QTc interval = conditions: average slope; Sedgwick et al 1991
[1] = IV dose of 1.5 μg/kg, restated rounded

peak level [1]: 1.7 ng/mL
Structure (SMILES): CN(CCOc1ccc(NS(C)(=O)=O)cc1)CCc1ccc(NS(C)(=O)=O)cc1 [dofetilide, Dofetilide]
QTc change per dofetilide plasma concentration, average (QTc interval): 20 ms
